Measurements reported in US6933315B2, “Derivatives of isoindigo, indigo and indirubin and methods of treating cancer” (priority 2001, dated 2005).
Read-outs that look alike come from different tables or passages of the source.

Key:
[1] = tested on: poly(ADP-ribose) polymerase (PARP); assay: PARP degradation by Western blot in N2A cells; format: cell-based, Mouse; conditions: 24 hours
Method: Induction of Apoptosis: As we mentioned previously that cancer cells probably have two options after arrest at G1 phase, i.e. differentiation or apoptosis. […] The cells were harvested, washed and DNA extracted. Approximately 2 μg per lane of DNA were subjected to 2% agarose gel electrophoresis. […] The cells were harvested, washed, and total proteins extracted for determination of PARP degradation by Western blotting as described previously. Upper panels (A & B) are imagines from ECL films, and lower panels (A′ & B′) are densities of the corresponding bands measured by an Imagine Densitometer (expressed as the percent of control).

[2] = tested on: neuroblastoma N2A cells; assay: DNA fragmentation (ladder) in N2A neuroblastoma cells; format: cell-based, Mouse; conditions: 5 μM, 2 days
Method: (§1) Once cancer cells have been arrested at G1 phase by either derivatives of the invention, such as, Meisiondigo or NATURA, they will either differentiate or enter apoptosis. […] FIG. 8 confirms that Meisoindigo and NATURA cause apoptosis. The formation of DNA fragmentation (ladder) were measured, an indicator of cell apoptosis, in both LNCaP prostate and N2A neuroblastoma cells. To do this LNCaP and neuroblastoma N2A cells at exponential growth phase were exposed to indicated concentrations of Meisoindigo or NATURA or Taxol (20 nM, as a positive control) for 2 days. The cells were harvested, washed and DNA extracted. Approximately 2 μg per lane of DNA were subjected to 2% agarose gel electrophoresis.
(§2) Induction of Apoptosis: As we mentioned previously that cancer cells probably have two options after arrest at G1 phase, i.e. differentiation or apoptosis. […] To confirm our hypothesis and earlier observations, we measured poly(ADP-ribose) polymerase (PARP) degradation and the formation of DNA fragmentation (ladder), indicators of cell apoptosis, in both LNCaP prostate and N2A neuroblastoma cells. LNCaP and neuroblastoma N2A cells at exponential growth phase were exposed to indicated concentrations of Meisoindigo or NATURA or Taxol (20 nM, as a positive control) for 2 days. The cells were harvested, washed and DNA extracted. […]

[3] = tested on: LNCaP; assay: Growth inhibition by MTT, LNCaP prostate cancer cells; format: cell-based, Human; conditions: Homo sapiens, LNCaP
Method: Growth inhibitory effects of NATURA and other agents on human cancer cells were determined by standard MTT (3-(4,5-dimethylthiazol-2-yl)-2,5-diphenyltetrazolium bromide Test) as described previously. […] The cells in the plates were then exposed to series of dilution of indicated agent. After 72 h of incubation, 100 μl of the medium was removed from each of the wells and 50 μl of a 1 mg/ml solution of 3-(4,5-dimethylthiazol-2-yl)-2,5-diphenyltetrazolium bromide (MTT) was added to each well and the cells were incubated for additional 4 h. 200 μl of solution of 0.04 N HCl-isopropanol was added to each well to dissolve the black fromazan participates, and absorbance at 540 nm was measured on a 96-Well.
(§3) The cells in the plates were then exposed to series of dilution of indicated agent. After 72 h of incubation, 100 μl of the medium was removed from each of the wells and 50 μl of a 1 mg/ml solution of 3-(4,5-dimethylthiazol-2-yl)-2,5-diphenyltetrazolium bromide (MTT) was added to each well and the cells were incubated for additional 4 h. 200 μl of solution of 0.04 N HCl-isopropanol was added to each well to dissolve the black fromazan participates, and absorbance at 540 nm was measured on a 96-Well Microplate Reader. Each experiment was repeated at least three times.

[4] = tested on: LNCaP cells; assay: DNA fragmentation (ladder) in LNCaP cells; format: cell-based, Human; conditions: 15 μM, 2 days
Method: as §1, §2

[5] = tested on: DLD-1; assay: Growth inhibition by MTT, DLD-1 colon cancer cells; format: cell-based, Human; conditions: Homo sapiens, DLD-1, 72 h exposure
Method: (§4) Growth inhibitory effects of NATURA and other agents on human cancer cells were determined by standard MTT (3-(4,5-dimethylthiazol-2-yl)-2,5-diphenyltetrazolium bromide Test) as described previously. Briefly, cancer cells grown exponentially were aliquoted into 96-well plates at a density of 5000 cells/200 μl per well in RPMI 1640 medium containing 10% FBS overnight. The cells in the plates were then exposed to series of dilution of indicated agent. After 72 h of incubation, 100 μl of the medium was removed from each of the wells and 50 μl of a 1 mg/ml solution of 3-(4,5-dimethylthiazol-2-yl)-2,5-diphenyltetrazolium bromide (MTT) was added to each well and the cells were incubated for additional 4 h. 200 μl of solution of 0.04 N HCl-isopropanol was added to each well to dissolve the black fromazan participates, and absorbance at 540 nm was measured on a 96-Well.
as §3, with “FIGS. 3-5 show the anticancer affects of NATURA in MCF-7 breast cancer cells, DLD-1 colon cancer cells, and LNCaP hormone-dependent prostate cancer cells. The cancer cells grown exponentially were aliquoted into 96-well plates at a density of 5000 cells/200 μl per well in RPMI 1640 medium containing 10% fetal bovine serum (FBS) overnight. The” for “The”

[6] = tested on: MCF-7; assay: Growth inhibition by MTT, MCF-7 breast cancer cells; format: cell-based, Human; conditions: Homo sapiens, MCF7, 72 h exposure
Method: as §4
as §3, with “FIGS. 3-5 show the anticancer affects of NATURA in MCF-7 breast cancer cells, DLD-1 colon cancer cells, and LNCaP hormone-dependent prostate cancer cells. The cancer cells grown exponentially were aliquoted into 96-well plates at a density of 5000 cells/200 μl per well in RPMI 1640 medium containing 10% fetal bovine serum (FBS) overnight. The” for “The”

[7] = tested on: ML-1 cells; assay: Morphological differentiation of ML-1 cells; format: cell-based, human; conditions: 5 days after exposure
[8] = MTT, 72 h exposure (Table 3), read-out: IC50 LNCaP

Structure (SMILES)	PARP protein degradation [1]	DNA ladders [2]	IC50 [3, 8]	DNA fragmentation [4]	IC50 [5]	IC50 [6]	ML-1 cells differentiated morphologically [7]	IC50 ([3]; Table 10, read-out: IC50 in LNCaP cells (NATURA and its derivatives))
CN1C(=O)/C(=C2/C(=O)Nc3ccccc32)c2ccccc21 [Meisoindigo]	strong induction	sufficient to significantly induce DNA ladders	2340 ± 330 nM	significant DNA fragmentation	2150 ± 170 nM	4.37 ± 0.31 µM	approximately 48%	
CC(=O)OC1COC(N2C(=O)/C(=C3/C(=O)Nc4ccccc43)c3ccccc32)C(OC(C)=O)C1OC(C)=O [NATURA, 1-(β-D-O-Triacetyl-xylopyranosyl)-isoindigo]	strong induction	sufficient to significantly induce DNA ladders	1720 ± 270 nM	significant DNA fragmentation	1640 ± 181 nM	2.91 ± 0.28 µM	approximately 48%	1720 nM
